The target of the experiment is T1, PD-1-Ig binding to PD-L1-TVMV-His (PD-L1-His) (Homo sapiens, UniProt Q9NZQ7).
T1 construct: hPDL1(19-239)-TVMV-His; made in house; host or cells: HEK293T cells
The experiment is described as follows: PD-1/PD-L1 Homogenous Time-Resolved Fluorescence (HTRF) binding assay. The conditions noted are these: PD-1-Ig (20 nM) / PD-L1-His (10 nM). Summed up: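 In dPBS with 0.1% BSA and 0.05% Tween-20, inhibitors were preincubated 15 min with 10 nM PD-L1-His before 20 nM PD-1-Ig was added for another 15 min. Binding read by time-resolved FRET between Eu-cryptate anti-Ig (1 nM) and APC anti-His (20 nM).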
(In general: TR-FRET usually uses a lanthanide donor and a delayed reading to cut background.)

Positions of bridges follow the written chain, without caps; N, C: chain ends. Non-standard residues stand in square brackets, D forms with d. Residues, ends and D or L forms follow the SMILES beside them. Trp(1-CH2COOH) = N[C@@H](Cc1cn(CC(=O)O)c2ccccc12)C(=O)O; Hyp = O=C(O)[C@@H]1C[C@@H](O)CN1; Aad = N[C@@H](CCCC(=O)O)C(=O)O; NMeNle = CCCC[C@H](NC)C(=O)O; dOrn = NCCC[C@@H](N)C(=O)O; Pip = O=C(O)[C@@H]1CCCCN1; NMeA = CN[C@@H](C)C(=O)O; Dab = NCC[C@H](N)C(=O)O; Dap = NC[C@H](N)C(=O)O; Ava = NCCCCC(=O)O

As a reminder, the IC50 is the point on the concentration scale where inhibition reaches its midpoint.

T1 sequence (Q9NZQ7 with tags, fused parts or gaps): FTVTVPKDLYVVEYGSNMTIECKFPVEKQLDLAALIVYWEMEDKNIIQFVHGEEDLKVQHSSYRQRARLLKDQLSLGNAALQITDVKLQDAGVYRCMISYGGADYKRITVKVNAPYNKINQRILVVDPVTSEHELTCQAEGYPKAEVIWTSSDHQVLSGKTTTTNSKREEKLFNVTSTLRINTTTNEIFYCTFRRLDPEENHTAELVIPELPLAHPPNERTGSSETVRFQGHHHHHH

`CCCC[C@H]1C(=O)N(C)[C@@H](CCCC)C(=O)NC(CC(C)C)C(=O)N[C@H](C(N)=O)CNCC(=O)N[C@@H](Cc2ccc(O)cc2)C(=O)N(C)[C@@H](C)C(=O)N[C@@H](CC(N)=O)C(=O)N2CCC[C@H]2C(=O)N[C@@H](CN)C(=O)N[C@@H](CCC(=O)O)C(=O)N2C[C@H](O)C[C@H]2C(=O)N[C@@H](Cc2c[nH]c3ccccc23)C(=O)N[C@@H](CCN)C(=O)N[C@@H](Cc2cn(CC(=O)O)c3ccccc23)C(=O)N1C` (stereo partly shown) [Example 1035]: where the note is “range classes”, the IC50 fell in the range of 1 to 9.9 nM. Still for that read-out and setting: the same measure for `CCCC[C@H]1C(=O)N(C)[C@@H](CCCC)C(=O)N[C@@H](CC(C)C)C(=O)N[C@H](C(=O)NCC(N)=O)CNCC(=O)N[C@@H](Cc2ccc(F)cc2)C(=O)N(C)[C@@H](C)C(=O)N[C@@H](CC(=O)O)C(=O)N2CCC[C@H]2C(=O)N[C@@H](CCC(N)=O)C(=O)N[C@@H](CCC(=O)O)C(=O)N2C[C@H](O)C[C@H]2C(=O)N[C@@H](Cc2c[nH]c3ccccc23)C(=O)N[C@@H](CC(N)=O)C(=O)N[C@@H](Cc2cn(CC(=O)O)c3ccccc23)C(=O)N1C` [Example 9016]: 1 to 9.9 nM; for `CCCC[C@H]1C(=O)N(C)[C@@H](CCCC)C(=O)N[C@@H](CC(C)C)C(=O)N[C@H](C(N)=O)CNCC(=O)N[C@@H](Cc2ccc(F)cc2)C(=O)N2CCCC[C@H]2C(=O)N[C@@H](CC(=O)O)C(=O)N2CCC[C@H]2C(=O)N[C@@H](CCC(N)=O)C(=O)N[C@@H](CCC(=O)O)C(=O)N2C[C@H](O)C[C@H]2C(=O)N[C@@H](Cc2c[nH]c3ccccc23)C(=O)N[C@@H](CC(N)=O)C(=O)N[C@@H](Cc2cn(CC(=O)O)c3ccccc23)C(=O)N1C` [Example 9040]: 1 to 9.9 nM. Still for that read-out and setting: for `CCCC[C@H]1C(=O)N(C)[C@@H](CCCC)C(=O)N[C@@H](CC(C)C)C(=O)N[C@H](C(N)=O)COCC(=O)N[C@@H](Cc2ccc(OC)cc2)C(=O)N2CCCC[C@H]2C(=O)N[C@@H](CC(N)=O)C(=O)N2CCC[C@H]2C(=O)N[C@@H](CN)C(=O)N[C@@H](CC(C)C)C(=O)N2C[C@H](O)C[C@H]2C(=O)N[C@@H](Cc2c[nH]c3ccccc23)C(=O)N[C@@H](CCN)C(=O)N[C@@H](Cc2cn(CC(=O)O)c3ccccc23)C(=O)N1C` [Example 10528] the value was 10 to 99 nM. `CCCC[C@H]1C(=O)N(C)[C@@H](CCCC)C(=O)N[C@@H](CC(C)C)C(=O)N[C@H](C(=O)NCC(N)=O)CCNCC(=O)N[C@@H](Cc2ccc(O)cc2)C(=O)N(C)[C@@H](C)C(=O)N[C@@H](CC(N)=O)C(=O)N2CCC[C@H]2C(=O)N[C@@H](Cc2cnc[nH]2)C(=O)N[C@@H](CC(C)C)C(=O)N2C[C@H](O)C[C@H]2C(=O)N[C@@H](Cc2c[nH]c3ccccc23)C(=O)NCC(=O)N[C@@H](Cc2c[nH]c3ccccc23)C(=O)N1C` [Example 10027] came in with an IC50 (numeric values) of 6.95 nM. Compound `CCCC[C@H]1C(=O)N(C)[C@@H](CCCC)C(=O)N[C@@H](CC(C)C)C(=O)N[C@H](C(=O)NCC(N)=O)CCNCC(=O)N[C@@H](Cc2ccc(O)cc2)C(=O)N(C)[C@@H](C)C(=O)N[C@@H](CC(N)=O)C(=O)N2CCC[C@H]2C(=O)N[C@@H](Cc2cnc[nH]2)C(=O)N[C@@H](CCC(N)=O)C(=O)N2C[C@H](O)C[C@H]2C(=O)N[C@@H](Cc2c[nH]c3ccccc23)C(=O)NCC(=O)N[C@@H](Cc2cn(CC(=O)O)c3ccccc23)C(=O)N1C` [Example 10021] came in with an IC50 (range classes) of 10 to 99 nM. Still for that read-out and setting: for `CCCC[C@H]1C(=O)N(C)[C@@H](CCCC)C(=O)N[C@@H](CC(C)C)C(=O)N[C@H](C(N)=O)CNCC(=O)N[C@@H](Cc2ccc(O)cc2)C(=O)N2CCCC[C@H]2C(=O)N[C@@H](CC(N)=O)C(=O)N2CCC[C@H]2C(=O)N[C@@H](CCC(N)=O)C(=O)N[C@@H](CC(=O)O)C(=O)N2C[C@H](O)C[C@H]2C(=O)N[C@@H](Cc2c[nH]c3ccccc23)C(=O)N[C@@H](CC(N)=O)C(=O)N[C@@H](Cc2cn(CC(=O)O)c3ccccc23)C(=O)N1C` [Example 9027] the value was 1 to 9.9 nM; for `CCCC[C@H]1C(=O)N(C)[C@@H](CCCC)C(=O)N[C@@H](CC(C)C)C(=O)NCCCCC(=O)N[C@@H](Cc2ccc(OC)cc2)C(=O)N2CCCC[C@H]2C(=O)N[C@@H](CC(=O)O)C(=O)N2CCC[C@H]2C(=O)N[C@@H](CN)C(=O)N[C@@H](CC(C)C)C(=O)N2C[C@H](O)C[C@H]2C(=O)N[C@@H](Cc2c[nH]c3ccccc23)C(=O)N[C@@H](CCN)C(=O)N[C@@H](Cc2cn(CC(=O)O)c3ccccc23)C(=O)N1C` [Example 10572] (cyclo([Ava]Y(Me)[Pip]DP[Dap]L[Hyp]W[Dab][Trp(1-CH2COOH)][NMeNle][NMeNle]L)), 1 to 9.9 nM. Still for that read-out and setting: the same measure for `CCCC[C@H]1C(=O)N(C)[C@@H](CCCC)C(=O)N[C@@H](CC(C)C)C(=O)N[C@H](C(=O)NCC(N)=O)CCCC(=O)N[C@@H](Cc2ccc(O)cc2)C(=O)N(C)[C@@H](C)C(=O)N[C@@H](CC(N)=O)C(=O)N2CCC[C@H]2C(=O)N[C@@H](CN)C(=O)N[C@@H](CCC(=O)O)C(=O)N2C[C@H](O)C[C@H]2C(=O)N[C@@H](Cc2c[nH]c3ccccc23)C(=O)N[C@@H](CCN)C(=O)N[C@@H](Cc2cn(CC(=O)O)c3ccccc23)C(=O)N1C` [Example 10507] (Y[NMeA]NP[Dap]E[Hyp]W[Dab][Trp(1-CH2COOH)][NMeNle][NMeNle]L[Aad]G-NH2; lactam N-14): 1 to 9.9 nM; for `CCCC[C@H]1C(=O)N(C)[C@@H](CCCC)C(=O)N[C@@H](CC(C)C)C(=O)N[C@H](C(N)=O)CNCC(=O)N[C@@H](Cc2ccc(O)cc2)C(=O)N2CCCC[C@H]2C(=O)N[C@@H](CC(=O)O)C(=O)N2CCC[C@H]2C(=O)N[C@@H](CCC(N)=O)C(=O)N[C@@H](CC(=O)O)C(=O)N2C[C@H](O)C[C@H]2C(=O)N[C@@H](Cc2c[nH]c3ccccc23)C(=O)N[C@@H](CC(N)=O)C(=O)N[C@@H](Cc2cn(CC(=O)O)c3ccccc23)C(=O)N1C` [Example 9035]: 1 to 9.9 nM.

With `CCCC[C@H]1C(=O)N(C)[C@@H](CCCC)C(=O)N[C@@H](CC(C)C)C(=O)N[C@H](C(N)=O)CNCC(=O)N[C@@H](Cc2ccc(F)cc2)C(=O)N2CCCC[C@H]2C(=O)N[C@@H](CC(N)=O)C(=O)N2CCC[C@H]2C(=O)N[C@@H](Cc2c[nH]cn2)C(=O)N[C@@H](CCC(=O)O)C(=O)N2C[C@H](O)C[C@H]2C(=O)N[C@@H](Cc2c[nH]c3ccccc23)C(=O)N[C@@H](C)C(=O)N[C@@H](Cc2cn(CC(=O)O)c3ccccc23)C(=O)N1C` [Example 9052], for the setting “numeric values”, the IC50 was 10 nM. For the compound `CCCC[C@H]1C(=O)N(C)[C@@H](CCCC)C(=O)N[C@@H](CC(C)C)C(=O)N[C@H](C(N)=O)COCC(=O)N[C@@H](Cc2ccc(OC)cc2)C(=O)N2CCCC[C@H]2C(=O)N[C@@H](CC(N)=O)C(=O)N2CCC[C@H]2C(=O)N[C@@H](CN)C(=O)N[C@@H](CCC(=O)O)C(=O)N2C[C@H](O)C[C@H]2C(=O)N[C@@H](Cc2c[nH]c3ccccc23)C(=O)N[C@@H](CCN)C(=O)N[C@@H](Cc2cn(CC(=O)O)c3ccccc23)C(=O)N1C` [Example 10530], the IC50 (range classes) fell in the range of 1 to 9.9 nM. Still for that read-out and setting: for `CCCC[C@H]1C(=O)N(C)[C@@H](CCCC)C(=O)N[C@@H](CC(C)C)C(=O)NCCC[C@@H](N)C(=O)N[C@@H](Cc2ccc(O)cc2)C(=O)N2CCCC[C@H]2C(=O)N[C@@H](CC(N)=O)C(=O)N2CCC[C@H]2C(=O)N[C@@H](CN)C(=O)N[C@@H](CC(C)C)C(=O)N2C[C@H](O)C[C@H]2C(=O)N[C@@H](Cc2c[nH]c3ccccc23)C(=O)N[C@@H](CCN)C(=O)N[C@@H](Cc2cn(CC(=O)O)c3ccccc23)C(=O)N1C` [Example 10558] (H-[dOrn]Y[Pip]NP[Dap]L[Hyp]W[Dab][Trp(1-CH2COOH)][NMeNle][NMeNle]L; lactam 1-C) the value was 10 to 99 nM.

The values above are taken from patent publication US9732119B2, “Immunomodulators” (BRISTOL-MYERS SQUIBB COMPANY, priority 2014, dated 2017).
